# Where a name gives a salt, the structure may show the parent alone.
# Molecular target: T1, human GPR39 receptor (Homo sapiens, UniProt O43194)
# T1 construct: PC3 Cells, Expressing the Endogenous Human GPR39 Receptor; endogenous in cells; host or cells: PC3 (human prostate adenocarcinoma) cells
# T1 sequence (O43194 1-453): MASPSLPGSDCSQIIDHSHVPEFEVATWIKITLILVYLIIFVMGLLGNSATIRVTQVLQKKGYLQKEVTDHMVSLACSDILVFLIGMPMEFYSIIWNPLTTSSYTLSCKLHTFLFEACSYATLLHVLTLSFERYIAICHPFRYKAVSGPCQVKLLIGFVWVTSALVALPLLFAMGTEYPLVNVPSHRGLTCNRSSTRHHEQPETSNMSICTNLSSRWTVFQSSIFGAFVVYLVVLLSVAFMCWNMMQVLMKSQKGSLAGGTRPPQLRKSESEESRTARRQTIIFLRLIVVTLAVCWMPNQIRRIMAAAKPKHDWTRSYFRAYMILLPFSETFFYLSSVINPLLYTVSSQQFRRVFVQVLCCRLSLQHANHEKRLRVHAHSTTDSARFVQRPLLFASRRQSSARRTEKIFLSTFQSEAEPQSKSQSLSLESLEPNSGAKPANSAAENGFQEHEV
# Assay: Intracellular calcium response (FLIPR, Calcium-6) in PC3 cells, antagonism of agonist C3 (TC-G 1008) at EC90
# Assay type: cell-based
# Conditions: functional pKi (-Log10Ki) by modified Cheng-Prusoff from IC50; PC3 cells endogenously expressing human GPR39; 30 μM ZnCl2; agonist C3 (TC-G 1008) at EC90 1.5 μM
# Protocol: Measurement of Intracellular Calcium Response in PC3 Cells, Expressing the Endogenous Human GPR39 Receptor
# Human prostate adenocarcinoma (PC3) cells endogenously expressing human GPR39 receptor were seeded into black walls clear-base 384-well plates at a density of 7,500 cells per well in DMEM (Low Glucose) supplemented with 10% heat-inactivated foetal bovine serum and 1% of Pen/Strep and grown overnight at 37° C., 5% CO2. After washing with assay buffer (20 mM HEPES, 137 mM NaCl, 5.4 mM KCl, 10 mM glucose, 0.8 mM MgSO4, 1.3 mM CaCl2), 0.3 mM Na2HPO4, 0.4 mM KH2PO4 4.2 mM NaHCO3, pH 7.4), cells were incubated with Calcium-6 probe (Molecular Devices) at 37° C. for 2 h and then equilibrated at RT for 30 minutes on metal block. The fluorescence was measured in real time by Fluorometric Imaging Plate Reader (FLIPR TETRA, Molecular Devices) (excitation wavelength at 470-495 nm, emission wavelength at 515-575 nm). Compounds of invention were serially diluted in neat DMSO at 1000 fold concentrations and plated into 384-well plates and then 200-fold diluted in assay buffer containing 150 μM ZnCl2 (30 μM final concentration) and 1.1% DMSO (0.32% final concentration). A dual addition FLIPR protocol was used which included a first addition of compounds 200-fold diluted in Assay Buffer containing 150 μM ZnCl2 and 1.1% DMSO and then after 10 minutes a second addition of a submaximal concentration of the hGPR39 receptor agonist, C3 (Tocris, TC-G 1008) at EC90 (concentration producing 90% of the maximal response) value of 1.5 μM. Fluorescence was monitored throughout the run assay. The peak of Ca2+ stimulation (baseline subtracted) was expressed as percentage of the maximal inhibition of the EC90 C3 response and was plotted versus the concentration of test compound. Curve fitting and IC50 estimations are carried out using a four-parameter logistic model using XLfit Software. […] An fpKi less than 5.2 is reported as “+/−”. An fpKi ranging from 5.2 to 5.9 is reported as “+”. An fpKi from 6.0 to 6.5 is reported as “++”. An fpKi from 6.6 to 7.2 is reported as “+++”. An fpKi equal to or greater than 7.3 is reported as “++++”.
row,fpKi activity,SMILES
1,+ +,"O=C(Nc1ccc(-c2nnc(N3CCC(F)(F)CC3)o2)c(N2CCCC2)c1)C1CC1 [Example 100, N-[4-[5-(4,4-difluoropiperidin-1-yl)-1,3,4-oxadiazol-2-yl]-3-pyrrolidin-1-ylphenyl]cyclopropanecarboxamide]"

# Same assay, conditions: functional pKi (-Log10Ki) by modified Cheng-Prusoff from IC50; PC3 cells endogenously expressing human GPR39; 30 μM ZnCl2; agonist C3 (TC-G 1008) at EC90 1.5 μM; read-out: fpKi activity
row,SMILES,Ki [nM]
1,"CC(C)n1ccc(-c2cc(NC(=O)C3CC3)ccc2C(=O)N2CCC(F)(F)CC2)n1 [Example 23, N-[4-(4,4-difluoropiperidine-1-carbonyl)-3-(1-propan-2-ylpyrazol-3-yl)phenyl]cyclopropanecarboxamide]",≤ 50.1
2,"Cc1nnc(-c2ccc(C(=O)N3CCC(C)CC3)c(-c3nc(C(F)(F)F)cs3)c2)[nH]1 [Example 62, (4-methyl-1-piperidyl)-[4-(5-methyl-4H-1,2,4-triazol-3-yl)-2-[4-(trifluoromethyl)thiazol-2-yl]phenyl]methanone]",≤ 50.1
3,"Cc1nnc(-c2ccc(C(=O)N3CCC(C)CC3)c(-c3ccn(C(C)C)n3)c2)[nH]1 [Example 61, (4-methylpiperidin-1-yl)-[4-(5-methyl-4H-1,2,4-triazol-3-yl)-2-(1-propan-2-ylpyrazol-3-yl)phenyl]methanone]",≤ 50.1
4,"Cc1ccc(-c2cc(NC(=O)C3CC3)ccc2C(=O)N2CCN(C)CC2c2ccccc2)s1 (racemic) [Example 34, N-[4-(4-methyl-2-phenylpiperazine-1-carbonyl)-3-(5-methylthiophen-2-yl)phenyl]cyclopropanecarboxamide]",63.1 to 251
5,"CN1CCN(C(=O)c2ccc(Nc3nc4ccccn4n3)cc2N2CCCC2)C(c2ccccc2)C1 (centres unmarked) [Example 19, (4-methyl-2-phenylpiperazin-1-yl)-[2-pyrrolidin-1-yl-4-([1,2,4]triazolo[1,5-a]pyridin-2-ylamino)phenyl]methanone]",> 6310
6,"Cc1nnc(-c2ccc(C(=O)N3CCC(C(F)(F)F)CC3)c(-c3cccc(C4CC4)n3)c2)[nH]1 [Example 71, [2-(6-cyclopropylpyridin-2-yl)-4-(5-methyl-4H-1,2,4-triazol-3-yl)phenyl]-[4-(trifluoromethyl)piperidin-1-yl]methanone]",≤ 50.1
7,"COC1(C)CCN(C(=O)c2ccc(-c3nnc(C)[nH]3)cc2-c2nc(C(F)(F)F)cs2)CC1 [Example 67, (4-methoxy-4-methyl-1-piperidyl)-[4-(5-methyl-4H-1,2,4-triazol-3-yl)-2-[4-(trifluoromethyl)thiazol-2-yl]phenyl]methanone]",≤ 50.1
8,"O=C(Nc1ccc(C(=O)N2CC3CC(C2)O3)c(N2CCCC2)c1)C1CC1 [Example 8, N-[4-(6-oxa-3-azabicyclo[3.1.1]heptane-3-carbonyl)-3-pyrrolidin-1-ylphenyl]cyclopropanecarboxamide]",1260 to 6310
9,"O=C(Nc1ccc(C(=O)N2CCC3(CC2)COC3)c(-c2cccc(C(F)(F)F)n2)c1)C1CC1 [Example 38, N-[4-(2-oxa-7-azaspiro[3.5]nonane-7-carbonyl)-3-[6-(trifluoromethyl)pyridin-2-yl]phenyl]cyclopropanecarboxamide]",≤ 50.1
10,"C[C@@H]1CN(C(=O)c2ccc(NC(=O)C3CC3)cc2N2CCCC2)C[C@@H](C)O1 (racemic) [Example 4, N-[4-[(trans)-2,6-dimethylmorpholine-4-carbonyl]-3-pyrrolidin-1-ylphenyl]cyclopropanecarboxamide]",1260 to 6310
11,"COC1(C)CCN(C(=O)c2ccc(-c3nnc(C)[nH]3)cc2-c2ccn(C(C)C)n2)CC1 [Example 39, [2-(1-isopropylpyrazol-3-yl)-4-(5-methyl-4H-1,2,4-triazol-3-yl)phenyl]-(4-methoxy-4-methyl-1-piperidyl)methanone]",≤ 50.1
12,"O=C(Nc1ccc(C(=O)N2CCC(c3ccccc3)C2)c(N2CCCC2)c1)C1CC1 (centres unmarked) [Example 2, N-[4-(3-phenylpyrrolidine-1-carbonyl)-3-pyrrolidin-1-ylphenyl]cyclopropanecarboxamide]",1260 to 6310
13,Cc1nnc(-c2ccc(C(=O)N3CCC(F)(F)CC3)c(-c3cccc(C(C)C)n3)c2)[nH]1 [Example 74],≤ 50.1
14,"Cc1nnc(-c2ccc(C(=O)N3CCC(C(C)(C)C)CC3)c(-c3ccn(C(C)C)n3)c2)[nH]1 [Example 40, (4-tert-butyl-1-piperidyl)-[2-(1-isopropylpyrazol-3-yl)-4-(5-methyl-4H-1,2,4-triazol-3-yl)phenyl]methanone]",63.1 to 251

# Next, values leading:
row,Ki [nM],SMILES
1,> 6310,"Cc1cc(C(=O)N2CCS(=O)(=O)CC2)c(N2CCCC2)cc1NC(=O)C1CC1 [Example 93, N-[4-(1,1-dioxo-1,4-thiazinane-4-carbonyl)-2-methyl-5-pyrrolidin-1-ylphenyl]cyclopropanecarboxamide]"
2,63.1 to 251,"O=C(c1ccc(-c2nnc[nH]2)cc1N1CCCC1)N1CCC(C(F)(F)F)CC1 [Example 112, [2-pyrrolidin-1-yl-4-(4H-1,2,4-triazol-3-yl)phenyl]-[4-(trifluoromethyl)piperidin-1-yl]methanone]"
3,63.1 to 251,"Cc1cnc(-c2ccc(C(=O)N3CCC(F)(F)CC3)c(-c3ccn(C(C)C)n3)c2)[nH]1 [Example 87, (4,4-difluoro-1-piperidyl)-[2-(1-isopropylpyrazol-3-yl)-4-(5-methyl-1H-imidazol-2-yl)phenyl]methanone]"
4,316 to 1000,"CC(C)n1ccc(-c2cc(-c3cc(C(F)(F)F)n[nH]3)ccc2C(=O)N2CCC(F)(F)CC2)n1 [Example 84, (4,4-difluoro-1-piperidyl)-[2-(1-isopropylpyrazol-3-yl)-4-[5-(trifluoromethyl)-1H-pyrazol-3-yl]phenyl]methanone]"
5,63.1 to 251,"O=C(Nc1ccc(C(=O)N2CCS(=O)(=O)CC2)c(-n2ccc(C(F)F)n2)c1)C1CC1 [Example 116, N-[3-[3-(difluoromethyl)pyrazol-1-yl]-4-(1,1-dioxo-1,4-thiazinane-4-carbonyl)phenyl]cyclopropanecarboxamide]"
6,1260 to 6310,"CN1CCN(S(=O)(=O)c2ccc(NC(=O)C3CC3)cc2N2CCCC2)CC1 [Example 103, N-[4-(4-methylpiperazin-1-yl)sulfonyl-3-pyrrolidin-1-ylphenyl]cyclopropanecarboxamide]"
7,1260 to 6310,"CN1CCN(S(=O)(=O)c2ccc(NC(=O)C3CC3)cc2N2CCCC2)C(c2ccccc2)C1 (centres unmarked) [Example 102, N-[4-(4-methyl-2-phenylpiperazin-1-yl)sulfonyl-3-pyrrolidin-1-ylphenyl]cyclopropanecarboxamide]"
8,≤ 50.1,"Cc1nnc(-c2ccc(C(=O)N3CCC(OC(F)(F)F)CC3)c(-c3ccn(C(C)(C)C)n3)c2)[nH]1 [Example 80, [2-(1-tert-butylpyrazol-3-yl)-4-(5-methyl-4H-1,2,4-triazol-3-yl)phenyl]-[4-(trifluoromethoxy)-1-piperidyl]methanone]"
9,> 6310,"O=C(Nc1ccc(-c2nnc(N3CCCC3)o2)c(N2CCCC2)c1)C1CC1 [Example 99, N-[3-pyrrolidin-1-yl-4-(5-pyrrolidin-1-yl-1,3,4-oxadiazol-2-yl)phenyl]cyclopropanecarboxamide]"
10,1260 to 6310,"CCOC(=O)c1csc(-c2cc(-c3nnc(C)[nH]3)ccc2C(=O)N2CCC(F)(F)CC2)n1 [Example 82, ethyl 2-[2-(4,4-difluoropiperidine-1-carbonyl)-5-(5-methyl-4H-1,2,4-triazol-3-yl)phenyl]thiazole-4-carboxylate]"
11,1260 to 6310,"Cc1cc(Cl)cc(C2CN(C)CCN2C(=O)c2ccc(NC(=O)C3CC3)cc2N2CCCC2)c1 (single isomer, unassigned) [Example 110b, N-[4-[2S or 2R-(3-chloro-5-methylphenyl)-4-methylpiperazine-1-carbonyl]-3-pyrrolidin-1-ylphenyl]cyclopropanecarboxamide hydrochloride]"
